Data set [1] has as its target T1, human adenosine transporter (Homo sapiens, UniProt Q99808).
T1 construct: homogenates of U-937 cell culture (American Tissue Culture Compository), expressing the human (es) transporter; endogenous in cells; host or cells: U-937 (human) cell membrane homogenates
T1 sequence (Q99808 1-456): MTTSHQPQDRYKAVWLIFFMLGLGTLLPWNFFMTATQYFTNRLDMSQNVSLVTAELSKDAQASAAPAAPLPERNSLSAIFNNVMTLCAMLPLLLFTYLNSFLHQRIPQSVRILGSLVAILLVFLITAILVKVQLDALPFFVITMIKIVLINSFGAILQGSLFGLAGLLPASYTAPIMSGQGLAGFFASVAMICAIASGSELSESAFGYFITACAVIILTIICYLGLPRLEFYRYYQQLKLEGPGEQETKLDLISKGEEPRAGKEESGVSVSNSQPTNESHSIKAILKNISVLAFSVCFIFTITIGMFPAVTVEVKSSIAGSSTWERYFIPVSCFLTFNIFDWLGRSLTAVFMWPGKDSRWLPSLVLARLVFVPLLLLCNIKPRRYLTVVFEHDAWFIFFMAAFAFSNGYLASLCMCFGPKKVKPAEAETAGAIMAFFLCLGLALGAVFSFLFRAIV
The data set can be described thus: Displacement of [3H]NBTI binding in U-937 cell homogenates. The following applies: mean ± SEM; for Ki: [3H]NBTI 2-4 nM, 50 mM TRIS pH 7.5, 4° C., 1.5 h, Cheng-Prusoff, read-out: Affinity (Ki μM); for Hill slope: log-logit analysis of competition binding data. On the procedure:
Neurochem 39, 184-191 (1982), incorporated herein by reference. The cell membranes in final concentration of 0.03 mg protein/mL are incubated with [^3H]NBTI at 2-4 nM concentration in 50 mM TRIS buffer (pH 7.5) at 4° C. for 1.5 h in a total volume of 1.0 mL. Nonspecific binding is defined with 10 μM NBTI. Each determination is carried out in triplicate. Bound and free [^3H]NBTI are separated by vacuum filtration through fiberglass filters (Schleicher & Schuell, Keene, N.H.) that are presoaked with 0.3% polyethylenimine for 10 min, using a Brandel […] cell harvester. The filters are washed three times for 10 s with ice-cold 50 mM TRIS buffer and placed in 10 mL scintillation fluid (Cytoscint, ICN). Beta spectrometry is performed using a Beckman […] instrument at 47% counting efficiency. IC50 values and Hill slopes (nH) are calculated from log-logit analysis of competition binding data. Ki values of the competing ligand are calculated from IC50 values using the Cheng-Prusoff equation, Ki=IC50/(1+L/KD) […] Data are expressed as mean±standard error of the mean (SEM).

The target in data set [2] is T2, human (es) transporter (Homo sapiens, UniProt Q99808).
T2 construct: homogenates of U-937 cell culture (American Tissue Culture Compository), expressing the human (es) transporter; endogenous in cells; host or cells: U-937 (human) cell membrane homogenates
T2 sequence (Q99808 1-456): T1 sequence (Q99808 1-456)
Briefly: Inhibition of [3H]adenosine transport in homogenates of U-937 cell culture. The class given is biochemical. Conditions: 10 μM [3H]adenosine; U-937 cell homogenates; HEPES buffer, 37° C., 30 min; read-out: inhibitory constant Ki, transport of [3H]adenosine. As to the method: Inhibition of [^3H]adenosine transport in homogenates of U-937 cell culture (American Tissue Culture Compository), expressing the human (es) transporter is performed according to Gu et al, J. Neurochem 67, 972-977 (1996), which is incorporated herein by reference. Rate of transport is determined in HEPES buffer at 37° C. for 30 min (with choline replacing sodium). Full displacement curves for the adenosine transporter are obtained by using 8 concentrations of each compound, increasing by a factor of 2 and ranging from 0.25 μM-32 μM. Nonspecific transport is defined with 1 μM NBTI ((S)-(4-nitrobenzyl)-6-thioinosine). Cell cultures are grown in high glucose Dulbecco's modified Eagle's medium supplemented with NaHCO3 (40 mM), 10% fetal bovine serum (Gibco), 400 mg/L geneticin, and 0.1 mM hypoxanthine.
Briefly, the cells are cultured at 37° C. under a CO2/air (5/95, v/v) in tissue culture flasks (75 cm^2, Falcon). When reaching confluency (70-80%), cells are trypsinized and harvested by centrifugation. Harvested cells are re-suspended in 50 mM TRIS buffer at 4° C. (0.1 mg/mL), the cell membranes are disrupted by Polytron homogenization (12,500 rpm for 25 s), and the suspension is centrifuged at 30,000×g for 60 min. The supernatent is discarded and remaining the pellet is resuspended in 50 mM TRIS buffer to 0.2 mg-0.5 mg protein/mL and frozen at −80° C. until used. […]

With `O=C(C=Cc1ccc(Cl)cc1)OC1CC2(O)CC(OC2=O)C1OC(=O)C=Cc1ccc(Cl)cc1` (stereo not drawn) [3,4-di(4-chlorocinnamoyl)-1,5-quinide], the melting point is 172 °C. In addition, in data set [1], the inhibitory constant (Ki) was found to be 1.3 µM and the Hill slope is reported as 1.12 ± 0.00.
Turning to `O=C(C=Cc1ccc(O)c(O)c1)OC1CC2(O)CC(OC2=O)C1OC(=O)C=Cc1ccc(O)c(O)c1` (stereo not drawn) [3,4-dicaffeoyl-1,5-quinide], in data set [1], the Ki is 2.4 ± 0.7 µM and the Hill slope turned out to be 1.00 ± 0.03.
The molecule `O=C(C=Cc1ccc(O)cc1)OC1CC2(O)CC(OC2=O)C1OC(=O)C=Cc1ccc(O)cc1` (stereo not drawn) [3,4-dicoumaroyl-1,5-quinide] showed a melting point of 233 to 235 °C. For the same molecule, in data set [1], the Ki turned out to be 0.96 ± 0.07 µM and the Hill slope was determined as 1.22 ± 0.11.
For `COc1cc(C=CC(=O)OC2CC3(O)CC(OC3=O)C2OC(=O)C=Cc2ccc(O)c(OC)c2)ccc1O` (stereo not drawn) [3,4-diferuloyl-1,5-quinide], the melting point was 142 to 144 °C. In data set [2], the Ki was found to be 1.2 µM. For the same molecule, in data set [1], the inhibition constant (Ki) turned out to be 0.96 ± 0.13 µM and the Hill slope is 0.94 ± 0.02.
